{"source": "patent US20250381109A1", "about": "“KERATIN TREATMENT FORMULATIONS AND METHODS” (Olaplex, Inc., priority 2014, published 2025)", "key": {"[1]": {"assay": "Hair treated with bleaching formulation applied simultaneously with active agent formulation versus bleaching formulation alone (Example 4)", "design": "species or system human", "settings": "3.5 g of 12 wt % in water added to bleaching mixture, two hours", "description": "(§1) (1) 0.5 ounces of powder lightener (Clairol Professional, Basic White) and 0.5 ounces of conditioning cream developer (Redken, Blonde Icing) were combined to form a bleaching mixture. 3.5 g of 2-(methacryloyloxy)ethan-1-aminium (Z)-3-carboxyacrylate (12 wt % in water) was added to the bleaching mixture and thoroughly mixed with a brush.\n(§2) (2) The bleaching mixture prepared was brushed onto the swatches of hair with a brush in order to thoroughly coat the strands of hair. The mixture coated hair was wrapped in aluminum paper and allowed to stand under ambient conditions for a period of two hours.\n(§3) (3) After the two hour bleaching period the swatches of hair were washed with shampoo and the hair was subsequently allowed to air dry."}, "[2]": {"assay": "Hair breakage due to repeated application of traditional perm and the active agent formulation (Example 7)", "settings": "after dithiothreitol or ammonium thioglycolate; procedure repeated three times over a 48 hour time period"}, "[3]": {"assay": "Traditional perm versus perm using maleic acid (Example 6)", "settings": "perm after ammonium thioglycolate or dithiothreitol; after 40 cycles of washing and drying"}, "[4]": {"assay": "Hair treated with bleaching formulation applied simultaneously with active agent formulation versus bleaching formulation alone (Example 5)", "design": "species or system human", "settings": "3.5 g of 10 wt % in water added to bleaching mixture, two hours", "description": "as §1, with “prop-2-en-1-aminium” for “2-(methacryloyloxy)ethan-1-aminium”, “(10” for “(12”\nas §2, §3"}}}
{"smiles": "C=C(C)C(=O)OCCN.O=C(O)/C=C\\C(=O)O", "note": "[2-(methacryloyloxy)ethan-1-aminium (Z)-3-carboxyacrylate]", "values": [{"measurement": "appearance", "setting": "[1]", "value": "healthy appearance"}, {"measurement": "breakage", "setting": "[1]", "value": "no discernible breakage"}, {"measurement": "feel", "setting": "[1]", "value": "great feel"}]}
{"smiles": "OO", "note": "[hydrogen peroxide]", "values": [{"measurement": "breakage upon visual inspection", "setting": "[2]", "value": "significant breakage"}, {"measurement": "reduction in the overall curl", "setting": "[3]", "value": "only slight reduction in the overall curl"}]}
{"smiles": "C=CCN.O=C(O)/C=C\\C(=O)O", "note": "[prop-2-en-1-aminium (Z)-3-carboxyacrylate]", "values": [{"measurement": "appearance", "setting": "[4]", "value": "healthy appearance"}, {"measurement": "breakage", "setting": "[4]", "value": "no discernible breakage"}, {"measurement": "feel", "setting": "[4]", "value": "great feel"}]}
